US11203574B2 (BioCryst Pharmaceuticals, Inc., priority 2014, dated 2021)

The compounds below were run against human plasma kallikrein (Homo sapiens (Human), UniProt P03952) (assay: Plasma kallikrein activity assay (chromogenic substrate S2302)). Conditions: 2 nM kallikrein, 80 μM S2302, 30° C., pH 7.8; Ki by Cheng-Prusoff equation; values given as ranges; read-out: Ki.
Assay type: biochemical
Protocol: Plasma Kallikrein Activity Assay.
The effect of compounds of the invention on human plasma kallikrein activity was determined using the chromogenic substrates (DiaPharma Group, Inc., West Chester, Ohio, USA). In these experiments, 2 nM kallikrein (Enzyme Research Laboratories, South Bend, Ind., USA) was incubated with 80 μM S2302 (H-D-Pro-Phe-Arg-p-nitroaniline) in the absence or presence of increasing concentrations of compounds of the invention in a final volume of 200 μL Tris-HCl buffer (200 mM NaCl; mM CaCl2; 50 mM Tris-HCl, pH 7.8).
Data were analyzed using SigmaPlot software (Systat Software, Inc., San Jose, Calif., USA) (Four Parameter Logistic Curve).

Sequence of human plasma kallikrein (P03952 whole entry, looked up): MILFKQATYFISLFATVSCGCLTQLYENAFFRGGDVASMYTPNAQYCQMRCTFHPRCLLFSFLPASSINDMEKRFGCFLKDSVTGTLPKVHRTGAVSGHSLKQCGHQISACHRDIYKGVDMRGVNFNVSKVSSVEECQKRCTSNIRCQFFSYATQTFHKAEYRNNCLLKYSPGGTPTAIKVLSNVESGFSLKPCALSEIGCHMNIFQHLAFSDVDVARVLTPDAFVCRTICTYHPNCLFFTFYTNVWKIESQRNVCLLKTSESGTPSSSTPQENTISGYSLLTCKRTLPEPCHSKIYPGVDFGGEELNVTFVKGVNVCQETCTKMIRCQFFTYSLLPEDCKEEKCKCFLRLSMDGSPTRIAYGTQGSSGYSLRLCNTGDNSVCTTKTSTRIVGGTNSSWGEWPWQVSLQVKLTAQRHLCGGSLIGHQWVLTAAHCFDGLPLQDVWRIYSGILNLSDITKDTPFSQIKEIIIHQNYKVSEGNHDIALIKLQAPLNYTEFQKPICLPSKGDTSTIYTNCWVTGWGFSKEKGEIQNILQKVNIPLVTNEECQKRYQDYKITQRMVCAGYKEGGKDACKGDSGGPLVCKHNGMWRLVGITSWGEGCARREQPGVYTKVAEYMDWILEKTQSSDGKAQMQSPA
Sequence of human plasma kallikrein (P03952 whole entry partner, looked up): as the sequence (P03952 whole entry, looked up) above

Q: With `NCc1cccc(-n2nc(C(F)(F)F)cc2C(=O)Nc2cc(C(N)(CCC3CC3)c3ccc(C(N)=O)cc3)ccc2F)c1` (single isomer, unassigned; (+)) [228a, (+)-N-(5-(1-amino-1-(4-carbamoylphenyl)-3-cyclopropylpropyl)-2-fluorophenyl)-1-(3-(aminomethyl)phenyl)-3-(trifluoromethyl)-1H-pyrazole-5-carboxamide] as the compound, how does the Ki read?
A: 0.1 to 50 nM

Q: For `NCc1cccc(-n2nc(C(F)(F)F)cc2C(=O)Nc2cccc(C(NCC3CC3)c3cccc4c3OCO4)c2)c1` (centres unmarked) [192f, 1-(3-(aminomethyl)phenyl)-N-(3-(benzo[d][1,3]dioxol-4-yl(cyclopropylmethylamino)methyl)phenyl)-3-(trifluoromethyl)-1H-pyrazole-5-carboxamide], which Ki is on record?
A: 0.1 to 50 nM

Q: Which Ki does the source give for `NCc1cccc(-n2nc(C(F)(F)F)cc2C(=O)Nc2cccc(C(NCC3CC3)c3ccc(-c4ccccc4)cc3)c2)c1` (centres unmarked) [133g, 1-(3-(aminomethyl)phenyl)-N-(3-(biphenyl-4-yl(cyclopropylmethylamino)methyl)phenyl)-3-(trifluoromethyl)-1H-pyrazole-5-carboxamide] here?
A: 0.1 to 50 nM

Q: With `NCc1cccc(-n2nc(C(F)(F)F)cc2C(=O)Nc2cccc(C(O)(CCC3CC3)c3cccnc3)c2)c1` (single isomer, unassigned; (+)) [47h, (+)-1-(3-(aminomethyl)phenyl)-N-(3-(3-cyclopropyl-1-hydroxy-1-(pyridin-3-yl)propyl)phenyl)-3-(trifluoromethyl)-1H-pyrazole-5-carboxamide] as the compound, how does the Ki read?
A: 0.1 to 50 nM

Q: How did the Ki turn out when `CC(C)CC(=O)NC(CCC1CC1)(c1cccnc1)c1ccc(F)c(NC(=O)c2cc(C(F)(F)F)nn2-c2cccc(CN)c2)c1` (single isomer, unassigned; (-)) [244k, (−)-1-(3-(aminomethyl)phenyl)-N-(5-(3-cyclopropyl-1-(3-methylbutanamido)-1-(pyridin-3-yl)propyl)-2-fluorophenyl)-3-(trifluoromethyl)-1H-pyrazole-5-carboxamide] was run?
A: 0.1 to 50 nM

Q: For `CC(=O)NC(CCC1CC1)(c1cccnc1)c1ccc(F)c(NC(=O)c2cc(C(F)(F)F)nn2-c2cccc(CN)c2)c1` (single isomer, unassigned; (-)) [244h, (−)-N-(5-(1-acetamido-3-cyclopropyl-1-(pyridin-3-yl)propyl)-2-fluorophenyl)-1-(3-(aminomethyl)phenyl)-3-(trifluoromethyl)-1H-pyrazole-5-carboxamide], which Ki is on record?
A: 0.1 to 50 nM

Q: `COc1cccc(C(NCC2CC2)c2cccc(NC(=O)c3cc(C(F)(F)F)nn3-c3cccc(CN)c3)c2)c1O` (centres unmarked) [151g, 1-(3-(Aminomethyl)phenyl)-N-(3-((cyclopropylmethylamino)(2-hydroxy-3-methoxyphenyl)methyl)phenyl)-3-(trifluoromethyl)-1H-pyrazole-5-carboxamide] was tested. Which Ki did it give?
A: 0.1 to 50 nM

Q: How did the Ki turn out when `NCc1cccc(-n2nc(C(F)(F)F)cc2C(=O)Nc2cccc(C(OCC3CC3)c3cccc(N)c3)c2)c1` (single isomer, unassigned; (+)) [64b, (+)-1-(3-(aminomethyl)phenyl)-N-(3-((3-aminophenyl)(cyclopropyl-methoxy)methyl)phenyl)-3-(trifluoromethyl)-1H-pyrazole-5-carboxamide] was run?
A: 0.1 to 50 nM

Q: For `NCc1cccc(-n2nc(C(F)(F)F)cc2C(=O)Nc2cc(C(=CCC3CC3)c3ccccc3)ccc2F)c1` [252c, 1-(3-(aminomethyl)phenyl)-N-(5-(3-cyclopropyl-1-phenylprop-1-enyl)-2-fluorophenyl)-3-(trifluoromethyl)-1H-pyrazole-5-carboxamide], which Ki is on record?
A: 0.1 to 50 nM

Q: Which Ki does the source give for `NCc1cccc(-n2nc(C(F)(F)F)cc2C(=O)Nc2cccc(C(OCC3CCC3)c3ccccc3)c2)c1` (centres unmarked) [75a, 1-(3-(aminomethyl)phenyl)-N-(3-((cyclobutylmethoxy)(phenyl)methyl)phenyl)-3-(trifluoromethyl)-1H-pyrazole-5-carboxamide] here?
A: 50 to 100 nM

Q: `NCc1cccc(-n2nc(C(F)(F)F)cc2C(=O)Nc2cccc(C(NCC3CC3)c3cccc(F)c3)c2)c1` (centres unmarked) [195f, 1-(3-(aminomethyl)phenyl)-N-(3-(((cyclopropylmethyl)amino)(3-fluorophenyl)methyl)phenyl)-3-(trifluoromethyl)-1H-pyrazole-5-carboxamide] was tested. Which Ki did it give?
A: 0.1 to 50 nM
